PubChem BioAssay AID720622 (The Scripps Research Institute Molecular Screening Center, 2013)

Assay: T. brucei parasite growth inhibition, late-stage follow-up, counter-screen for T. brucei MetRS inhibitor project, absorbance (AID 720622)
Details: T. brucei bloodstream form 427 growth, AlamarBlue fluorescence, 48 h; run 1

Point of comparison: `O=C(NCc1nc2ccccc2[nH]1)C1=C[C@@H](c2ccc(Br)cc2)C[C@@H](OCCCCO)O1`, IC50 6.6 µM. Against it:
- O=C(Cn1cc(C(=O)C(=O)N2CCOCC2)c2ccccc21)Nc1cccc(C(F)(F)F)c1 — 1.9-fold lower, 3.53 µM
- CC(=O)c1c[nH]c(C(=O)NCc2cccc(C(F)(F)F)c2)c1 — higher, > 10 µM
- O=C(CN1CCSC1=NCc1ccccc1)c1ccc(Cl)c(Cl)c1 — higher, > 10 µM
- COc1ccc2[nH]c3nc(SCC(=O)Nc4ccc5c(c4)OCO5)nnc3c2c1 — higher, > 10 µM
- O=C(Cn1cnc2ccccc21)Nc1cccc([N+](=O)[O-])c1 — higher, > 10 µM
- O=C1CC(N(CCc2ccccc2)C(=S)Nc2ccccc2)C(=O)N1c1ccc(Br)cc1 (configuration not stated) — 3.4-fold lower, 1.95 µM
- O=C(NCc1nc2ccccc2[nH]1)C1=C[C@@H](c2csc3ccccc23)C[C@@H](OCCCCO)O1 — higher, > 10 µM
- COc1ccc(OCC(O)CNC(=O)Nc2ccc(Cl)cc2)cc1 (configuration not stated) — higher, > 10 µM
- CN(Cc1cc(Cl)cc(Cl)c1)[C@H]1C[C@H]2c3[nH]c4ccccc4c3CCN2C(=O)[C@H]1CO — 3.4-fold lower, 1.97 µM
- COc1ccccc1NS(=O)(=O)c1cccc(NC(=O)Nc2ccccc2)c1 — within 1.5-fold, 6.06 µM
- O=C(CC=NOCc1ccc([N+](=O)[O-])cc1)Nc1ccc(Br)cc1 — higher, > 10 µM
- C[C@H](O)[C@@H]1C(=O)N2CCc3c([nH]c4ccccc34)[C@@H]2C[C@@H]1N(C)Cc1ccc2c(c1)OCO2 — higher, > 10 µM
- CC(=O)c1ccc(N2CCN(C(=O)CCCn3c(=O)[nH]c4ccc(Br)cc4c3=O)CC2)cc1 — higher, > 10 µM
- Clc1ccc(-c2nnc(SCc3nc4ccccc4[nH]3)o2)c(Cl)c1 — higher, > 10 µM
- O=C(NNC(=O)c1ccc(-n2cncn2)c([N+](=O)[O-])c1)c1ccc(Cl)cc1 — higher, > 10 µM
- O=C(NCc1nc2ccccc2[nH]1)C1=C[C@@H](c2ccc3c(c2)OCO3)C[C@@H](OCCCCO)O1 — higher, > 10 µM
- O=C(NCc1nc2ccccc2[nH]1)C1=C[C@H](c2ccccc2)C[C@H](OCc2ccc(CO)cc2)O1 — higher, > 10 µM
- O=C(CC(=O)Nc1cccc(Cl)c1)NN=Cc1ccccc1 — higher, > 10 µM
- Clc1ccc(OCCSCc2nc3ccccc3[nH]2)cc1 — higher, > 10 µM
- O=C(NNC(=O)c1cc(-c2ccc(Cl)c(Cl)c2)nc2ccccc12)Nc1ccccc1 — within 1.5-fold, 5.24 µM
- O=C(NCc1nc2ccccc2[nH]1)C1=C[C@@H](C2CC2)C[C@@H](OCc2ccc(CO)cc2)O1 — higher, > 10 µM
- Cc1ccc(NC(=O)CN(C)C(=O)CCSc2ccc(F)cc2)cc1 — higher, > 10 µM
- CCOC(=O)N1CCC(Nc2c(Nc3ccc(F)cc3)c(=O)c2=O)CC1 — within 1.5-fold, 8.72 µM
- COc1ccc(CNC(=O)CSc2nnc3c(n2)[nH]c2ccc(F)cc23)cc1 — higher, > 10 µM
- O=C(NCc1nc2ccccc2[nH]1)C1=C[C@@H](c2ccc(Br)cc2)C[C@@H](OCc2ccc(CO)cc2)O1 — 1.5-fold lower, 4.38 µM
- O=C(NCc1nc2ccccc2[nH]1)C1=C[C@H](C2CC2)C[C@H](OCc2ccc(CO)cc2)O1 — higher, > 10 µM
- COc1ccccc1-n1c(SCC(=O)Nc2ccc(Cl)cc2)nc(O)c(Cc2ccccc2)c1=O — higher, > 10 µM
- CC(C)OCCCN1CC(=O)N2C(c3cccc([N+](=O)[O-])c3)c3[nH]c4ccccc4c3C[C@H]2C1=O (some centres not stated) — higher, > 10 µM
- Brc1cnc2nc(SCc3nc4ccccc4[nH]3)[nH]c2c1 — higher, > 10 µM
- Cc1[nH]c2ccc(Br)cc2c(=O)c1CN1CCCCCC1 — higher, > 10 µM
- O=C(CC=NOCc1ccc([N+](=O)[O-])cc1)Nc1ccc(Cl)cc1 — higher, > 10 µM
- O=C(NCc1nc2ccccc2[nH]1)C1=C[C@H](c2ccc(Br)cc2)C[C@H](OCc2ccc(CO)cc2)O1 — within 1.5-fold, 9.73 µM
- Oc1c(Cl)cc(Cl)cc1CNc1nc2ccccc2[nH]1 — higher, > 10 µM
- O=C(CCC(=O)Nc1cccc([N+](=O)[O-])c1)NN=Cc1cccs1 — higher, > 10 µM
- CC(CC(=O)Nc1cccc(Br)c1)=NNC(=O)c1ccc(O)cc1O — higher, > 10 µM
- CCO[C@@H]1OC(C(=O)NCc2nc3ccccc3[nH]2)=C[C@H](c2ccc(Br)cc2)[C@H]1CCCO — higher, > 10 µM
- CC(C)(C)[C@@H]1C=C(C(=O)NCc2nc3ccccc3[nH]2)O[C@H](OCc2ccc(CO)cc2)C1 — higher, > 10 µM
- O=C(NCCc1nc2ccccc2[nH]1)c1ccc(Cl)c([N+](=O)[O-])c1 — within 1.5-fold, 4.97 µM
- O=C1[C@@H]2Cc3c([nH]c4ccccc34)C(c3cccc([N+](=O)[O-])c3)N2C(=O)CN1CCCO (some centres not stated) — higher, > 10 µM
- O=C(NCc1nc2ccccc2[nH]1)C1=C[C@@H](c2ccccc2)C[C@@H](OCc2ccc(CO)cc2)O1 — higher, > 10 µM
- CCCCCCCCCC1NC(C(=O)O)Cc2c1[nH]c1ccccc21 (configuration not stated) — higher, > 10 µM
- CN1CC(=O)N2C(c3cccc([N+](=O)[O-])c3)c3[nH]c4ccccc4c3C[C@H]2C1=O (some centres not stated) — higher, > 10 µM
- O=C(N/C(=C\c1cccnc1)c1nc2ccccc2[nH]1)c1cccc(Br)c1 — higher, > 10 µM
- CC(C)(C)[C@H]1C=C(C(=O)NCc2nc3ccccc3[nH]2)O[C@@H](OCc2ccc(CO)cc2)C1 — higher, > 10 µM
- O=C(NCc1nc2ccccc2[nH]1)C1=C[C@H](c2ccc3c(c2)OCO3)C[C@H](OCCCCO)O1 — higher, > 10 µM
- O=C1CC(SCc2nc3ccccc3[nH]2)C(=O)N1c1cccc(Cl)c1 (configuration not stated) — higher, > 10 µM
- COc1cccc(NC(=O)CSc2nnc3c(n2)[nH]c2ccc(C)cc23)c1 — higher, > 10 µM
- O=C(NCc1nc2ccccc2[nH]1)C1=C[C@H](c2csc3ccccc23)C[C@H](OCCCCO)O1 — 1.7-fold lower, 3.96 µM
- CN(CC(=O)Nc1ccc(Cl)cc1)C(=O)c1ccc(-n2cncn2)c([N+](=O)[O-])c1 — higher, > 10 µM
- O=C(C[C@H]1C(=O)N(Cc2ccccc2)C[C@@H]1c1ccc(Br)cc1)Nc1ccc(Br)cc1 — 1.6-fold lower, 4.03 µM
- CCO[C@H]1OC(C(=O)NCc2nc3ccccc3[nH]2)=C[C@@H](c2ccc(Br)cc2)[C@@H]1CCCO — higher, > 10 µM
- O=C(Nc1ccc(F)c(Cl)c1)C1CC(=O)n2c(nc3ccccc32)N1 (configuration not stated) — higher, > 10 µM
- O=C(NCc1nc2ccccc2[nH]1)C1=C[C@H](c2ccc(Br)cc2)C[C@H](OCCCCO)O1 — higher, > 10 µM

Same assay, conditions: T. brucei bloodstream form 427 growth, AlamarBlue fluorescence, 48 h; run 2

Point of comparison: `O=C1CC(N(CCc2ccccc2)C(=S)Nc2ccccc2)C(=O)N1c1ccc(Br)cc1` (configuration not stated), IC50 2.74 µM. Against it:
- O=C(Cn1cc(C(=O)C(=O)N2CCOCC2)c2ccccc21)Nc1cccc(C(F)(F)F)c1 — 1.5-fold lower, 1.8 µM
- CN(Cc1cc(Cl)cc(Cl)c1)[C@H]1C[C@H]2c3[nH]c4ccccc4c3CCN2C(=O)[C@H]1CO — within 1.5-fold, 2.62 µM
